According to US20240197897A1, “HETEROTANDEM BICYCLIC PEPTIDE COMPLEXES” (Bicycle Tx Limited, priority 2021, published 2024):
Starred links: 1 amine or outer side, 2 acyl side, 3 side chain; linkers in the order of their positions; H or OH if unused. Positions of bridges follow the written chain, without caps; N, C: chain ends. Non-standard residues stand in square brackets, D forms with d. Residues, ends and D or L forms follow the SMILES beside them. Chains are numbered I, II in the order given. TATA = O=C(CC[*:1])N1CN(C(=O)CC[*:2])CN(C(=O)CC[*:3])C1; X2 = O=C(CCOCCOCCOCCOCCOCCn1cc(CCC(=O)[*:2])nn1)[*:1]; Hyp = O=C(O)[C@@H]1C[C@@H](O)CN1; hArg = N=C(N)NCCCC[C@H](N)C(=O)O; Cba = N[C@@H](CC1CCC1)C(=O)O

What was measured:
Assay type in all cases: cell-based, human
[1] = tested on: NK cells co-cultured with the HT1080-luc tumor cell line; test: Cytokine secretion assay (IFN-gamma, TNF-alpha; NK:HT1080-luc co-culture); settings: 2 nM construct, Luminex, FIG. 11
Procedure: (§1) Heterotandem bicyclic peptide complexes were evaluated for NK functional readouts (cytotoxicity and cytokine secretion) in NK-tumor cell line co-cultures.
NK cells were isolated using a negative isolation kit (STEMCELL Technologies® 17955) from the total PBMC population purified from whole blood. NK cell pellet was then resuspended in DMEM medium (Corning™ 10-013-CV) with 10% heat-inactivated fetal bovine serum (FBS; Corning® 35-011-CV), 10 mM HEPES (Gibco™ 15-630-080), and 1% Penicillin Streptomycin (Corning™ 30-002-CI), and 50 IU/mL human IL-2 (Miltenyi Biotec® 130-097-748), at a concentration of 4×10^5 cells/mL. For the NK cell cytokine secretion assay, […] NK cell in 50 μl cell suspension were plated in the 96-well U-bottom plate (Grenier Bio One™ 650180) containing 50 μl (4×10^4) HT1080-luc cells (ATCC® CCL-121-luc2) in DMEM (Gibco™ 11875-093; with L-glutamine) with 10% heat-inactivated fetal bovine serum (FBS; Corning® 35-011-CV), 10 mM HEPES (Gibco™ 15-630-080), and 1% Penicillin Streptomycin (Corning™ 30-002-CI). […] The plates were then incubated for 4 hours at 37° C., 5% CO2. Post-incubation, plates was centrifuged at 250×g for 5 minutes and 100 μl supernatant harvested. Samples were immediately stored at −20° C. or assessed for cytokine levels. Interferon-gamma or TNF-alpha levels were measured in 50 μl of collected supernatants through the Human IFN-gamma Quantikine™ ELISA kit (R&D Systems DIF50C) or Human TNF-alpha Quantikine™ ELISA kit (R&D Systems DTAOOD). Data was acquired at wavelength of 450 nm on CLARIOstar® plate-reader and was fit to a four-parameter non-linear regression in CLARIOstar® plate reader MARS Data Analysis™ software and analyzed with GraphPad Prism™ 8.0.2 software to quantify to cytokine levels. Alternatively, TNF-alpha and IFN-gamma cytokine were measured from 25 μl of collected supernatant by Luminex Assay: Human XL Cytokine Discovery Premixed Kit (R&D Systems, FCS™ 18-05) Luminex 200™ flow instrument and xPONENT™ analysis software.

[2] = tested on: HT1080-luc cells; test: NK cytotoxicity assay (NK:HT1080-luc co-culture, luciferase readout); settings: in comparison to NK:HT1080-luc co-culture without heterotandem complex (NK-TICA)
Procedure: as §1
(§2) NK cells were isolated using a negative isolation kit (STEMCELL™ Technologies 17955) from the total PBMC population purified from whole blood. NK cell pellet was then resuspended in DMEM medium (Corning™ 10-013-CV) with 10% heat-inactivated fetal bovine serum (FBS; Corning® 35-011-CV), 10 mM HEPES (Gibco™ 15-630-080), and 1% Penicillin Streptomycin (Corning™ 30-002-CI), and 50 IU/mL human IL-2 (Miltenyi Biotec® 130-097-748), at a concentration of 4×10^5 cells/mL. For the NK cell cytotoxicity assays, 50 μL (2×10^4) of cell suspension was plated in the 96-well plate (Grenier® Bio One™ 655090) containing 50 μl (4×10^3) HT1080-luc cells (ATCC® CCL-121-luc2) in DMEM (Gibco™ 11875-093; with L-glutamine) with 10% heat-inactivated fetal bovine serum (FBS; Corning® 35-011-CV), 10 mM HEPES (Gibco™ 15-630-080), and 1% Penicillin Streptomycin (Corning™ 30-002-CI). […] The plates were then incubated for 24 hours at 37° C., 5% CO2. Post-incubation, plates was centrifuged at 250×g for 5 minutes and 100 μl supernatant discarded. Samples were then incubated 10 minutes with 50 μl Bright-Glo™ Luciferase Assay system (Promega™ E2620). Luminescence upon excitation at 570 nm was read using a CLARIOstar® plate-reader with MARS Data Analysis Software™. Data was fit to a four-parameter non-linear regression in GraphPad Prism™ 8.0.2 to generate an EC50 value.

[3] = as above; settings: NK:HT1080-luc co-culture, 24 hours, four-parameter logistic regression; FIGS. 2-4, 6-8, 10; read-out: EC50 NK cytotoxicity (tumor cell killing)
Procedure: as §1, §2

Compound | TNF-alpha and IFN-gamma production from NK cells [1] | effect on tumor cell killing by NK cells, in words [2] | EC50 [3] [pM]
CC(=O)N[C@H]1CSCCC(=O)N2CN3CN(C2)C(=O)CCSC[C@H](NC(=O)[C@H](CC(C)C)NC(=O)[C@H](Cc2ccc(O)cc2)NC(=O)[C@H](CC(=O)O)NC(=O)[C@@H]2CCCN2C(=O)[C@H](CC2CCC2)NC(=O)[C@H](Cc2ccc(O)cc2)NC1=O)C(=O)N[C@H](C)C(=O)N[C@@H](CC(=O)O)C(=O)N[C@@H](CCC(=O)O)C(=O)N[C@@H](Cc1ccc(O)cc1)C(=O)N[C@H](C(=O)N[C@@H](CCCCNC(=O)CCc1cn(CCOCCOCCOCCOCCNC(=O)CCOCC(COCCC(=O)NCCOCCOCCOCCOCCn2cc(CCC(=O)NCCCC[C@H](NC(=O)[C@@H]4CSCCC(=O)N5CN6CN(C5)C(=O)CCSC[C@H](NC(=O)[C@H](CC(C)C)NC(=O)[C@H](Cc5ccc(O)cc5)NC(=O)[C@H](CC(=O)O)NC(=O)[C@@H]5CCCN5C(=O)[C@H](CC5CCC5)NC(=O)[C@H](Cc5ccc(O)cc5)NC(=O)[C@@H](NC(C)=O)CSCCC6=O)C(=O)N[C@H](C)C(=O)N[C@@H](CC(=O)O)C(=O)N[C@@H](CCC(=O)O)C(=O)N[C@@H](Cc5ccc(O)cc5)C(=O)N4)C(N)=O)nn2)(COCCC(=O)NCCOCCOCCOCCOCCn2cc(CCC(=O)NCCCC[C@H](NC(=O)[C@@H]4CSCCC(=O)N5CN6CN(C5)C(=O)CCSC[C@H](NC(=O)[C@H](CC(C)C)NC(=O)[C@H](Cc5ccc(O)cc5)NC(=O)[C@H](CC(=O)O)NC(=O)[C@@H]5CCCN5C(=O)[C@H](CC5CCC5)NC(=O)[C@H](Cc5ccc(O)cc5)NC(=O)[C@@H](NC(C)=O)CSCCC6=O)C(=O)N[C@H](C)C(=O)N[C@@H](CC(=O)O)C(=O)N[C@@H](CCC(=O)O)C(=O)N[C@@H](Cc5ccc(O)cc5)C(=O)N4)C(N)=O)nn2)NC(=O)CCOCCOCCOCCOCCOCCC(=O)N[C@@H](C)C(=O)N[C@@H](CCCCNC(=N)N)C(=O)N[C@@H](CC(=O)O)C(=O)N[C@H]2CSCCC(=O)N4CN5CN(C4)C(=O)CCSC[C@H](NC(=O)[C@H](CC(C)C)NC(=O)[C@@H]4CCCN4C(=O)[C@H](CC(N)=O)NC(=O)[C@H](C(C)C)NC(=O)[C@H](CC(C)C)NC(=O)[C@@H]4C[C@@H](O)CN4C2=O)C(=O)N[C@@H](CC(C)C)C(=O)N[C@@H](Cc2c[nH]cn2)C(=O)N2CCC[C@H]2C(=O)N[C@H](CC(=O)O)C(=O)N[C@@H](Cc2c[nH]c4ccccc24)C(=O)N[C@@H](CCCCNC(=N)N)C(=O)N[C@H](C(N)=O)CSCCC5=O)nn1)C(N)=O)CSCCC3=O [BCY21686] | Cytokine production from NK cells was observed | enhanced, dose-dependent effect in tumor cell killing | 1.3
CC(=O)N[C@H]1CSCCC(=O)N2CN3CN(C2)C(=O)CCSC[C@H](NC(=O)[C@H](CC(C)C)NC(=O)[C@H](Cc2ccc(O)cc2)NC(=O)[C@H](CC(=O)O)NC(=O)[C@@H]2CCCN2C(=O)[C@H](CC2CCC2)NC(=O)[C@H](Cc2ccc(O)cc2)NC1=O)C(=O)N[C@H](C)C(=O)N[C@@H](CC(=O)O)C(=O)N[C@@H](CCC(=O)O)C(=O)N[C@@H](Cc1ccc(O)cc1)C(=O)N[C@H](C(=O)N[C@@H](CCCCNC(=O)CCc1cn(CCOCCOCCOCCOCCOCCC(=O)N[C@@H](C)C(=O)N[C@@H](CCCCNC(=N)N)C(=O)N[C@@H](CC(=O)O)C(=O)N[C@H]2CSCCC(=O)N4CN5CN(C4)C(=O)CCSC[C@H](NC(=O)[C@H](CC(C)C)NC(=O)[C@@H]4CCCN4C(=O)[C@H](CC(N)=O)NC(=O)[C@H](C(C)C)NC(=O)[C@H](CC(C)C)NC(=O)[C@@H]4C[C@@H](O)CN4C2=O)C(=O)N[C@@H](CC(C)C)C(=O)N[C@@H](Cc2c[nH]cn2)C(=O)N2CCC[C@H]2C(=O)N[C@H](CC(=O)O)C(=O)N[C@@H](Cc2c[nH]c4ccccc24)C(=O)N[C@@H](CCCCNC(=N)N)C(=O)N[C@H](C(N)=O)CSCCC5=O)nn1)C(N)=O)CSCCC3=O [BCY17225] (I: A[hArg]DC[Hyp]LVNPLCLHP[dD]W[hArg]C-NH2 / II: Ac-CY[Cba]PDYLC[dA]DEYCK-NH2; linker I:4-I:11-I:18, II:1-II:8-II:13 via TATA; linker I:N-II:14 via X2; C-terminus assumed) | Cytokine production from NK cells was observed | enhanced, dose-dependent effect in tumor cell killing | 3.6
